≈ marks a conversion by molar mass, not a printed value.
Assays:
[1] = test system: melanin nanoparticles (mNPs); test: Melanin binding assay for machine learning model validation (RED device, biotin quantitation); design: species or system Sepia officinalis; conditions: C-terminal biotinylated peptide 10 µM with mNPs, pH 6.5 PBS, RED 8K device, 24 h, 900 rpm; unbound peptide by fluorescence biotin quantitation; n = 4
Experimental: The mNPs were mixed with C-terminal biotinylated peptides (10 µM) in pH 6.5 PBS solution and incubated in the rapid equilibrium dialysis (RED) 8 K device for 24 h on an orbital shaker at 900 rpm. A total of 10 µL of the solution from the rapid dialysis reservoir was collected. The concentration of unbound biotinylated peptides was analyzed with the Pierce™ Fluorescence Biotin Quantitation Kit. Four sets of melanin binding assays were performed. Melanin binding was calculated as the difference in free peptide normalized with the starting peptide concentration. Experimental melanin binding values of the 127 peptide candidates were compared with the predicted melanin binding values with the Pearson correlation. Melanin binding predictions larger than 100% were cast to 100% because this was the maximum value in the melanin binding training set.

[2] = test system: melanin-induced ARPE-19 cells; test: Cell-penetration (cell uptake) assay, melanin-induced ARPE-19; type: cell-based, human; conditions: C-terminal biotinylated peptide 100 µM in pH 6.5 PBS, 6 h, 37 °C, 5 PBS washes, RIPA lysis, fluorescence biotin quantitation, n = 3
Experimental: Three 96 well plates per ARPE19 cell type group (melanin-induced or non-melanin induced) were seeded at 0.01 × 10^6 cells/well. ARPE-19 cells were either cultured with DMEM:F12 medium containing 10% FBS according to protocol provided by the vendor (non-melanin induced) or cultured in DMEM high glucose, pyruvate media with 250 µM of ferric ammonium citrate[107] for 2 months (melanin-induced)[20]. The expression of melanin was confirmed visually with bright field microscopy and by measuring absorbance at 475 nm (>0.4 arb. units)[20]. Within each plate, 12 wells were randomly selected to quantify the cell numbers with an automated cell counter (Countess 3 Automated Cell Counter, Thermo Fisher) for normalization in the cell uptake study. […] To quantify cell-associated peptides, the cells were lysed with 100 µL of RIPA lysis buffer at 4 °C for 48 h. The concentration of intracellular biotinylated peptides was analyzed with the Pierce™ Fluorescence Biotin Quantitation Kit. The mean intracellular concentration values of the three replicates were then grouped by cell types (melanin-induced or non-melanin induced), and a two-tailed Mann–Whitney U (Wilcoxon rank-sum) test was calculated using the wilcox.test function in R. The intracellular concentration values were also plotted against experimental melanin binding. […]

[3] = test system: melanin nanoparticles (mNPs); test: In vitro melanin binding assay (binding capacity and Kd, RED device, HPLC); design: species or system Sepia officinalis; conditions: binding capacity and dissociation constant of ocular drugs, melanin
Experimental: The solutions (400 µL) were then mixed thoroughly with 400 µL of 1 mg/mL mNPs in pH 6.5 PBS solution and transferred to the inner reservoir of the rapid equilibrium dialysis (RED) device inserts (8 K MWCO). The outer reservoir was filled with 800 µL of pH 6.5 PBS solution. The samples were incubated on an orbital shaker with temperature control at 37 °C and 300 rpm for 48 h (n = 3). The solutions from outer reservoir (free drug) were than collected and transferred to an autosampler vial for HPLC analysis (Prominence LC2030, Shimadzu, Columbia, MD) with photodiode-array detection (PDA) system. […] The amount of bound drug was used to calculate the binding capacity (mol drug/mg melanin) and the dissociation constant (Kd) as previously described[20],[34].

intraocular pressure = test: IOP measurement in normotensive Dutch Belted rabbits; type: in vivo; conditions: for cumulative IOP change: Brimonidine group
Experimental: (§1) For the IOP measurements in normotensive rabbits, Dutch Belted rabbits (2–3 kg) were used (n = 5). IOP was measured with a hand-held rebound tonometer icareTONOVET (Vantaa, Finland) in the awake and gently restrained rabbit. Each rabbit was acclimatized to the IOP measurement procedure for at least 5 days to obtain a stable background IOP reading. A mean of three IOP measurements for an individual eye were taken every other day for 6 days (3 times in total) and used as a baseline value. For the ICM injection procedure, rabbits were anesthetized with ketamine/xylazine and received topical anesthesia with 0.5% proparacaine hydrochloride. A corneal pre-puncture was performed with a 30 G needle, followed with a single bolus ICM injection of 200 µg (mass of brimonidine) of HR97-brimonidine or brimonidine tartrate solution in 100 µL saline using a 28 G needle. After the procedure, topical bacitracin-neomycin-polymyxin ophthalmic ointment was applied to both eyes to prevent infection and dry eyes. On day 7, an ophthalmologist masked to treatment evaluate the HR97-brimonidine injected eyes with the following items: functionality of lids, lashes, conjunctiva, cornea transparency, pigmentation of corneal endothelium, depth of anterior chambers, inflammation, fibrin strands, and symmetry of the lens[113]. […] In a separate study, a corneal pre-puncture was performed with a 30 G needle, followed with a single bolus ICM injection of 200 µg (mass of brimonidine) containing a physical mixture of unconjugated HR97 and brimonidine tartrate (HR97 + brimonidine), the equivalent amount of HR97 peptide alone, or saline alone in 100 µL saline. On day 7, day 14, day 21, and day 28, an ophthalmologist masked to treatment performed the same safety evaluations described above. IOP was measured on days 2, 3, 4, 5, 6, 7, 8, 10, 12, 14, 16, 18, and 20 after the ICM injection, and change in IOP from the baseline (ΔIOP) was reported. The mean of three IOP measurements was taken for each eye by one observer, and then confirmed by a masked observer. Alternatively, a single topical eye drop (Alphagan® P 0.1%, 50 µL) was given (n = 5). The IOP were measured immediately before the topical dosing (0 h), and at 2, 4, 6 and 8 h after the eyedrop administration. For the pharmacokinetics studies, rabbits (n = 4 per group) received a single ICM injection with 200 µg (mass of brimonidine) HR97-brimonidine as described above. Rabbits were sacrificed 1, 7, 14, 28 days after the injection, and iris, aqueous, and retina were collected for measuring the brimonidine concentration.

[4] = Brimonidine in ocular tissues after ICM injection (LC-MS/MS)
Experimental: as §1
Brimonidine concentrations in ocular tissues were measured by liquid chromatography-tandem mass spectrometry (LC-MS/MS) as previously described. All samples were collected in pre-weighed tubes and stored at −80 °C until processing for analysis. Tissue samples were homogenized in 100–600 μL 1 × PBS using a Bullet Blender® (Next Advance, Inc, Troy, NY, USA) before extraction. Brimonidine were extracted from 15 to 50 μL of tissue homogenates with 50 μL of acetonitrile containing 50/50/2.5 ng/mL of the internal standards. The top layer was then transferred to an autosampler vial for LC-MS/MS analysis after centrifugation. All ocular tissue samples were analyzed using a 1 × PBS standard curve for brimonidine. […] The column effluent was monitored using a 5500 mass-spectrometric detector (Sciex) using electrospray ionization operating in positive mode. The mobile phase A was water containing 0.1% formic acid and mobile phase B was acetonitrile containing 0.1% formic acid. The gradient started with mobile phase B held at 20% for 0.5 min and increased to 100% over 0.5 min; 100% mobile phase B was held for 1 min and then returned to 20% mobile phase B and allowed to equilibrate for 1 min.

[5] = test system: melanin nanoparticles (mNPs); test: Relative binding of drugs to mNPs; design: species or system Sepia officinalis
Text: (§2) Supplementary Fig. 1 | Characterization of melanin nanoparticles (mNPs) and biotinylated-melanin
(§3) nanoparticles (b-mNPs). a Representative transmission electron microscopes (TEM) images of mNPs and b-
(§4) (black dots, n = 3 per drug group) and b-mNPs (gray squares, n = 3 per drug group). Data are shown as mean ±
(§5) (1 picture or pasted object on this page, not shown here)

[6] = test system: biotinylated melanin nanoparticles (b-mNPs); test: Relative binding of drugs to b-mNPs; design: species or system Sepia officinalis
Text: as §2, §3, §4, §5

[7] = ref 3 of the peer review file, Acheampong et al. 2002; cited from earlier work
Text: 1.5 Brimonidine is applied as eye drops three times per day. […] Why is that? What is the required free brimonidine concentration for activity?

YGRKKRRQRRR [TAT47–57]
melanin binding (bound fraction) [1]: 77.6 ± 1.5% | cell uptake (intracellular peptide concentration) [2]: 457.1 ± 34.2 pmol/100 K cells

Brc1c(NC2=NCCN2)ccc2nccnc12 [brimonidine]
Binding Capacity (mole/mg melanin) [3]: 5e-8 mole/mg melanin | Kd [3]: 5.27 µM | cumulative IOP change (intraocular pressure; rabbit 1, sex printed Female): 3.583 | cumulative IOP change (intraocular pressure; rabbit 2, sex printed Male): -9.917 | cumulative IOP change (intraocular pressure; rabbit 3, sex printed Female): 9.167 | cumulative IOP change (intraocular pressure; rabbit 4, sex printed Male): 13.75 | cumulative IOP change (intraocular pressure; rabbit 5, sex printed Female): 2.667 | peak ΔIOP at 2 days (intraocular pressure; single ICM injection, 200 µg brimonidine equivalent, n = 5): −2.6 ± 1.65 mmHg | time for the mean ΔIOP to return to baseline (intraocular pressure; single ICM injection, n = 5 per group): 8 days | brimonidine levels in eye tissues, Iris ([4]; 1 days, sample 1 (Male)): 11376.8 | brimonidine levels in eye tissues, Iris ([4]; 1 days, sample 2 (Male)): 47581.5 | brimonidine levels in eye tissues, Iris ([4]; 1 days, sample 3 (Female)): 23310.4 | brimonidine levels in eye tissues, Iris ([4]; 7 days, sample 1 (Female)): 2210.2 | brimonidine levels in eye tissues, Iris ([4]; 7 days, sample 2 (Female)): 5336.3 | brimonidine levels in eye tissues, Iris ([4]; 7 days, sample 3 (Male)): 10576.6 | brimonidine levels in eye tissues, Iris ([4]; 7 days, sample 4 (Male)): 7554.5 | brimonidine levels in eye tissues, Iris ([4]; 14 days, sample 1 (Female)): 3473.6 | brimonidine levels in eye tissues, Iris ([4]; 14 days, sample 2 (Female)): 5226.5 | brimonidine levels in eye tissues, Iris ([4]; 14 days, sample 3 (Male)): 4493.7 | brimonidine levels in eye tissues, Iris ([4]; 14 days, sample 4 (Male)): 711.1 | brimonidine levels in eye tissues, Iris ([4]; 28 days, sample 1 (Male)): 1400.2 | brimonidine levels in eye tissues, Iris ([4]; 28 days, sample 2 (Male)): 859.9 | brimonidine levels in eye tissues, Iris ([4]; 28 days, sample 3 (Female)): 1137.6 | brimonidine levels in eye tissues, Iris ([4]; 28 days, sample 4 (Female)): 522.1 | brimonidine levels in eye tissues, Retina ([4]; 1 days, sample 1 (Male)): 23.3 | brimonidine levels in eye tissues, Retina ([4]; 1 days, sample 2 (Male)): 64.6 | brimonidine levels in eye tissues, Retina ([4]; 1 days, sample 3 (Female)): 636.9 | brimonidine levels in eye tissues, Retina ([4]; 1 days, sample 4 (Female)): 1138.2 | brimonidine levels in eye tissues, Retina ([4]; 7 days, sample 1 (Female)): 14.2 | brimonidine levels in eye tissues, Retina ([4]; 7 days, sample 2 (Female)): 4.9 | brimonidine levels in eye tissues, Retina ([4]; 7 days, sample 3 (Male)): 125.6 | brimonidine levels in eye tissues, Retina ([4]; 7 days, sample 4 (Male)): 19.8 | brimonidine levels in eye tissues, Retina ([4]; 14 days, sample 1 (Female)): 33.2 | brimonidine levels in eye tissues, Retina ([4]; 14 days, sample 2 (Female)): 7.4 | brimonidine levels in eye tissues, Retina ([4]; 14 days, sample 3 (Male)): 43 | brimonidine levels in eye tissues, Retina ([4]; 14 days, sample 4 (Male)): 14.8 | brimonidine levels in eye tissues, Retina ([4]; 28 days, sample 1 (Male)): 10.7 | brimonidine levels in eye tissues, Retina ([4]; 28 days, sample 2 (Male)): 7.9 | brimonidine levels in eye tissues, Retina ([4]; 28 days, sample 3 (Female)): 8.6 | brimonidine levels in eye tissues, Retina ([4]; 28 days, sample 4 (Female)): 5.8 | Relative binding of drugs to mNPs ([5]; replicate 1 of n = 3): 141.911 | Relative binding of drugs to mNPs ([5]; replicate 2 of n = 3): 83.4707 | Relative binding of drugs to mNPs ([5]; replicate 3 of n = 3): 74.618 | Relative binding of drugs to b-mNPs ([6]; replicate 1 of n = 3): 84.2618 | Relative binding of drugs to b-mNPs ([6]; replicate 2 of n = 3): 102.105 | Relative binding of drugs to b-mNPs ([6]; replicate 3 of n = 3): 167.093 | EC50 in the aqueous humor [7]: 2.9 ng/mL (≈ 9.93 nM)

Reference: article PMC10154330, “Machine learning-driven multifunctional peptide engineering for sustained ocular drug delivery” (Nature Communications, 2023)
